Measured values as given in a melting point compilation (Tetko et al.; mined from patent text by program, amines drawn as free bases though some values may be those of a salt).

First: COc1cc2c(cc1Nc1ncc(Cl)c(N[C@H]3[C@@H](C(N)=O)[C@@H]4C=C[C@H]3C4)n1)CCN(CC(C)O)CC2 (stereo not given in full)
Second: CC(=O)Nc1cc2c(cc1[N+](=O)[O-])N(NC(C)=O)CC2
The melting point of the first is lower: 120 °C for the first, 212 to 213 °C for the second.

First: CCCCc1ncc(C=C2C(=O)N(C)c3ccccc32)n1Cc1ccc(C(=O)O)cc1
Second: O=C(CCl)Nc1ccc2c(c1NC(=O)c1ccco1)C(=O)c1ccccc1C2=O
The melting point of the first is lower: 185 to 188 °C for the first, 211 to 212 °C for the second.

Compared with `CCOCc1nc2c(c(C)c(C)n3nnnc23)n1CCNC(=O)OC(C)(C)C`, `COC(=O)C1=C(COCC(C)n2c(C)nc(C)c2C)Nc2c(c(=O)n(C)c(=O)n2C)C1c1ccccc1Cl` (stereo not given) is lower in melting point: 197 to 199 °C for the first, 180 to 182 °C for the second.

First: CN1C(C(=O)Nc2ccccc(O)c2=O)=C(O)c2ccccc2S1(=O)=O
Second: O=C(OCc1ccccc1C(=O)O)c1ccccc1
The melting point of the first is higher: 294 to 296 °C for the first, 118 to 124 °C for the second.

First: C=Cc1ccc(C(=O)OC)[nH]1
Second: COC(=O)c1ccc(N2CCNCC2)cc1
The melting point of the first is lower: 91 to 93 °C for the first, 95 to 97 °C for the second.

First: OCC1=CCOc2ccc(Cl)cc21
Second: OCc1cc(I)cc(I)c1
The melting point of the first is lower: 85 to 88 °C for the first, 136 to 140 °C for the second.

First: CCN(CC)CCNC(=O)c1cc(Cl)c(N)cc1OCCN
Second: CCN(CC)CCNC(=O)c1c[nH]c2ccc(I)cc2c1=O
The melting point of the first is lower: 97 to 99 °C for the first, 234 to 236 °C for the second.

Compared with `CCCCOc1cc2c(cc1C(=O)NC)CC(N(CCC)CCC)C2` (stereo not given), `COc1ccc(/C=C/CCCCOc2ccc(C(=O)CCCC(=O)O)cc2CCC(=O)O)cc1` is lower in melting point: 129 to 130 °C for the first, 113 to 114 °C for the second.

First: O=C(Nc1ccncc1)c1n[nH]c2ccc(-c3cncc4[nH]ccc34)cc12
Second: O=C(c1c[nH]c2cc(Oc3ccc(F)cc3)ccc12)C1CSC(c2cccnc2)N1 (stereo not given)
The melting point of the first is higher: greater than 250 °C for the first, 189 to 191 °C for the second.

First: NC(=O)c1ccc(-c2cccc3cc(COc4cccc(C(F)(F)F)c4)sc23)cc1
Second: O=C(N[C@H](Cc1ccc(C(F)(F)F)cc1)[C@@H](O)c1ccc(F)cc1)c1ccnc2ccccc12 (racemic)
The melting point of the first is lower: 191 to 192 °C for the first, 227 to 228 °C for the second.

First: CCC(=O)Nc1c(C(=O)c2cccc(Cl)c2)[nH]c2ccc(Cl)cc12
Second: CCOC(=O)CCCOc1ccc(S(=O)(=O)n2c(=O)[nH]c3cc(Cl)ccc3c2=O)cc1
The melting point of the first is higher: 206 to 208 °C for the first, 167 to 169 °C for the second.

Going from `O=C(NC1CCC(c2cc(Nc3cccc(C(F)(F)F)c3)n[nH]2)C1)c1ccccn1` (stereo not given) to `Cc1cc2c(-c3cccc(C(F)(F)F)c3)nc(Cl)nc2s1`, the melting point falls from 162 °C to 108 °C.

First: O=C(NCC1Cc2ccccc2C1)OCc1ccccc1
Second: CC(C)(Nc1ccc(OCc2ccccc2)cc1)C(=O)O
The melting point of the first is lower: 87 to 89 °C for the first, 210 °C for the second.

First: CC(=NOCCOc1ccc(CC2SC(=O)NC2=O)cc1)c1ccc(-c2ccc3c(c2)OCO3)cc1 (stereo not given)
Second: Cc1ccc(-c2ccc3nc(C)c(C(=O)Nc4ccc(CN(C)C5CCOCC5)cc4)cc3c2)cc1
The melting point of the first is lower: 137 to 139 °C for the first, 157 to 160 °C for the second.

First: O=C(O)CCCc1cc2nc(Cl)ccc2n1S(=O)(=O)c1ccc2c(c1)OCCO2
Second: COC(=O)CCc1cc2cc(Cl)ccc2n1S(=O)(=O)c1ccc(C#N)cc1
The melting point of the first is higher: 166 °C for the first, 155 to 159 °C for the second.

Compared with `Cc1ccccc1C(=O)Nc1ccc(C(=O)N2CCCC(N(C)C(=O)c3ccccc3)c3ccccc32)cc1` (stereo not given), `COc1ccc2c(c1)c(CC(=O)OC(OC(C)=O)c1ccccc1)c(C)n2C(=O)c1ccc(Cl)cc1` (stereo not given) is lower in melting point: 248 to 249 °C for the first, 93 to 94 °C for the second.

First: O=C1c2cccc(-n3c(=O)[nH]c4cnccc4c3=O)c2C2CC3(CCN12)OCCO3 (stereo not given)
Second: O=C1Nc2ccc(Cl)cc2C1c1ncnc2c1cnn2C1CCCCC1 (stereo not given)
The melting point of the first is lower: 204 °C for the first, 300 to 305 °C for the second.

Compared with `Cc1cc2c(-c3ccccc3)c(CN)n(C)c(=O)c2cc1C`, `Cc1cn(-c2cc3nc(NN)c(=O)n(OCc4ccccc4)c3cc2C(F)(F)F)c(-c2ccccc2)n1` is lower in melting point: 163 to 165 °C for the first, 127 to 130 °C for the second.

First: CSNC(=O)c1c(Cl)cccc1[Si](C)(C)C
Second: CC(C(=O)O)c1ccc(N2CCC=N2)c(Cl)c1 (stereo not given)
The melting point of the first is lower: 92 to 94 °C for the first, 94 to 102 °C for the second.

Compared with `CCOc1cc2nc(NC)nc(-c3cccc(-c4cccnc4SC)c3)c2cc1OCC`, `COc1cccc(-c2nc(N)c(C(N)=O)nc2-c2ccc(=O)n(C(C)C)c2)c1` is higher in melting point: 105 to 107 °C for the first, 192 °C for the second.

Compared with `O=[N+]([O-])c1cc(Cl)cc(C(Cl)c2cc(Cl)cc([N+](=O)[O-])c2O)c1O`, `Cn1c2cc(Cl)cc(Cl)c2c2cc(C(=O)O)sc21` is higher in melting point: 180 °C for the first, 278 to 281 °C for the second.

Compared with `COc1ccc(-c2nc(N)sc2-c2cccnc2)cc1`, `COc1ccc(C(=O)c2c(N)sc(C)c2C)cc1` is lower in melting point: 265 to 266 °C for the first, 132 to 133 °C for the second.

First: O=C1NCCNc2c1sc1ccccc21
Second: N#CCc1cc2ccccc2s1
The melting point of the first is higher: 210 to 212 °C for the first, 59 to 61 °C for the second.

First: O=C1Cc2cccc(Oc3ccccc3)c2N1
Second: COc1ccc(C2CSc3ccccc3NC2=O)cc1OC (stereo not given)
The melting point of the first is lower: 135 to 146 °C for the first, 174 °C for the second.

First: CO/C(=C\C=C\c1cc2ccccc2[nH]1)C(=O)NCc1ccccc1
Second: O=[N+]([O-])c1ccc2c(c1)CN(Cc1ccccc1)C2
The melting point of the first is higher: 204 to 205 °C for the first, 80.5 to 81 °C for the second.

Compared with `COC(=O)c1cc(Cl)cc(C(=O)OC)n1`, `COC(=O)C1(C(=O)Nc2ccc(Br)cc2C)CC1` is lower in melting point: 132 to 134 °C for the first, 106 to 108 °C for the second.

Compared with `N#CSc1nc(Cl)ncc1Br`, `N#CCOc1ccc2cc(-c3cc4ccccc4o3)ccc2c1Cl` is lower in melting point: 166 to 170 °C for the first, 162 to 163 °C for the second.

First: O=S(=O)(NN1CCCCC1)c1ccc(S)cc1
Second: O=C(Nc1ccc(F)cc1)NC1CCN(C(=O)c2cccnc2)CC1
The melting point of the first is lower: 93 °C for the first, 118 to 122 °C for the second.

Compared with `COC(=O)C(=CNc1ncnc2ccc(NC(=O)C(C)(C)C)cc12)C(=O)OC`, `CC(C)(C)OC(=O)N1CCC(OCc2ccccc2)C1CC(=O)Cn1cnc2cccnc2c1=O` (stereo not given) is higher in melting point: 189 to 190 °C for the first, 229 °C for the second.

First: CC1(C)CCC(C)(C)c2cc(CC#Cc3ccc(C(N)=O)cc3)ccc21
Second: CCOC(=O)OC12Oc3cc(C(C)C)ccc3C1(OC(=O)OCC)C(=O)c1ccccc12 (stereo not given)
The melting point of the first is higher: 207 to 208 °C for the first, 150 to 153 °C for the second.

Compared with `CC(=O)c1cccc(N2CCN(CCC3CCC(NC(=O)CC#N)CC3)CC2)c1` (stereo not given), `COc1ccccc1N1CCN(CCC(C#N)(c2ccccc2)c2ccccc2[N+](=O)[O-])CC1` (stereo not given) is lower in melting point: 160 °C for the first, 61 to 64 °C for the second.

Compared with `CCc1c2c(c(C)c(C)c1N1CCN(c3ccc(OC)cc3)CC1)OC(C)(C)C2=O`, `CCc1cccc(CC)c1NC(=O)Nc1oc2ccc(C)cc2c1-c1ccccc1Cl` is higher in melting point: 133 to 134 °C for the first, 214 to 215 °C for the second.

First: CN1CCc2cc(O)c(O)c(Sc3ccsc3)c2CC1
Second: O=C1CCCC2=C1C(c1cccc(Br)c1)C1=C(CCCC1)N2 (stereo not given)
The melting point of the first is lower: 189 to 191 °C for the first, 258 to 260 °C for the second.

First: C=C1C(=O)OC2OC3(C)CCC4C(C)CCC1C24OO3 (stereo not given)
Second: Cc1cc(C[C@H]2NC(=O)O[C@H]2c2ccc(F)cc2)cc(OC(F)(F)C(F)F)c1 (racemic)
The melting point of the first is higher: 161 to 162 °C for the first, 107 to 108 °C for the second.

Compared with `CC(=O)SCC(CSC(C)=O)C(=O)N1c2ccccc2CCC1C(=O)O` (stereo not given), `CC(C)(C)OC(=O)N1[C@@H](C(=O)O)C[C@H](S(=O)(=O)c2ccccc2)[C@H]1c1ccccc1F` (racemic) is higher in melting point: 149 to 151 °C for the first, 186 °C for the second.
